# Like-named read-outs stand apart in the source and are kept apart here.
# How the values were obtained:
# p53 in A2780 cells = experiment: p53 ELISA (capacity to preserve p53 in A2780 cells); assay type: cell-based; conditions: lowest dose giving at least 140% of the value for p53 present in the control; A2780 cells treated with compound for 16 hours
# Experimental: The capacity of the compounds to preserve p53 in A2780 cells was measured with the p53 enzyme linked immunosorbent assay. The p53 assay is a “sandwich” enzyme immunoassay employing two polyclonal antibodies. A polyclonal antibody, specific for the p53 protein, has been immobilized onto the surface of the plastic wells. Any p53 present in the sample to be assayed will bind to the capture antibody. The biotinylated detector polyclonal antibody also recognizes p53 protein, and will bind to any p53, which has been retained by the capture antibody. The detector antibody, in turn, is bond by horseradish peroxidase-conjugated streptavidin. The horseradish peroxidase catalyses the conversion of the chromogenic substrate o-phenylene diamine, the intensity of which is proportional to the amount of p53 protein bond to the plate. The colored reaction product is quantified using a spectrophotometer. Quantitation is achieved by the construction of a standard curve using known concentrations of purified recombinant HIS tagged p53 protein (see example C.1.).
# A2780 cells (ATCC) were cultivated in RPMI 1640 supplemented with 10% fetal calf serum (FCS), 2 mM L-glutamine and gentamycin at 37° C. in a humidified incubator with 5% CO2.
# A2780 cells were seeded at 20.000 cells per well in a 96 well plate, cultured for 24 hours and treated with compound for 16 hours at 37° C. in a humidified incubator. After incubation, the cells were washed once with phosphate-buffered saline and 30 μl, per well, low salt RIPA buffer (20 mM tris, pH7.0, 0.5 mM EDTA, 1% Nonidet P40, 0.5% DOC, 0.05% SDS, 1 mM PMSF, 1 μg/ml aprotinin and 0.5 μ/ml leupeptin) was added. Plates were placed on ice for 30 minutes to complete the lysis. p53 protein was detected in de lysates by using the sandwich ELISA, described below.
# High binding polystyrene EIA/RIA 96 well plates (Costar 9018) were coated with the capture antibody pAb1801 (Abcam ab28-100) at a concentration of 1 μg/ml in coating buffer (0.1 M NaHCO3 pH8.2), 50 μl per well. The antibody was allowed to adhere overnight at 4° C. Coated plates were washed once with phosphate-buffered saline (PBS)/0.05% Tween 20 and 300 μl of blocking buffer (PBS, 1% bovine serum albumins (BSA)) was added, for an incubation period of 2 hours at room temperature. Dilutions of purified recombinant HIS tagged p53 protein, ranging from 3-200 ng/ml, were made in blocking buffer and used as standards.
# Plates were washed twice with PBS/0.05% Tween 20 and blocking buffer or standards were added at 80 μl/well. To the standards, 20 μl of lysis buffer was added. The samples were added to the other wells at 20 μl lysate/well. After an overnight incubation at 4° C., plates were washed twice with PBS/0.05% Tween 20. Aliquots of 100 μl secondary polyclonal antibody p53(FL-393) (Tebubio, sc-6243) at a concentration of 1 μg/ml in blocking buffer were added to each well and allowed to adhere for 2 hours at room temperature. Plates were washed three times with PBS/0.05% Tween 20. Detection antibody anti-rabbit HRP (sc-2004, Tebubio) at 0.04 μg/ml in PBS/1% BSA was added and incubated for 1 hour at room temperature. Plates were washed three times with PBS/0.05% Tween 20 and 100 μl of substrate buffer was added (substrate buffer was prepared shortly before use by adding 1 tablet of 10 mg o-phenylene diamine (OPD) from Sigma and 125 μl 3% H2O2 to 25 ml OPD buffer: 35 mM citric acid, 66 mM Na2HPO4, pH5.6). After 5 to 10 minutes, colour reaction was stopped by adding 50 μl stop buffer (1 M H2SO4) per well. The absorbance at dual wavelengths of 490/655 nm was measured using a Biorad micro plate reader and the results were then analyzed.
# For each experiment, controls (containing no drug) and a blank incubation (containing no cells or drugs) were run in parallel. The blank value was subtracted from all control and sample values. For each sample, the value of p53 (in absorbance units) was expressed as the percentage of the value for p53 present in the control. […]
# U87MG cells = experiment: Proliferation assay (MTT-based) on U87MG tumour cells; assay type: cell-based; conditions: Homo sapiens, U-87 MG, 96 h, 4 days of incubation
# Experimental: Cellular activity of the compounds of formula (I) was determined on U87MG tumour cells using a colorimetric assay for cell toxicity or survival (see example C.2).
# U87MG cells are human glioblastoma cells with wild type p53. In this cell line MDM2 tightly controls p53 expression.
# All compounds tested were dissolved in DMSO and further dilutions were made in culture medium. Final DMSO concentrations never exceeded 0.1% (v/v) in cell proliferation assays. Controls contained U87MG cells and DMSO without compound and blanks contained DMSO but no cells.
# U87MG cells were seeded in 96-well cell culture plates at 3000 cells/well/100 μl. 24 hours later, medium was changed and compound and/or solvent were added to a final volume of 200 μl. Following 4 days of incubation, medium was replaced by 200 μl fresh medium and cell growth was assessed using a MTT-based assay. Therefore, 25 μl of the MTT solution (0.5% MTT research grade from Serva in phosphate-buffered saline) was added to each well and the cells were further incubated for 2 hours at 37° C. The medium was then carefully aspirated and the blue MTT-formazan product was dissolved by adding to each well 25 μl 0.1M glycin and 100 μl DMSO. The plates were shaken for another 10 min on a micro plate shaker before reading absorbance at 540 nm by a Biorad micro plate reader.
# Within an experiment, the results for each experimental condition are the mean of 3 replicate wells. For initial screening purposes, compounds were tested at a single fixed concentration of 10^−5 M. For active compounds, the experiments were repeated to establish full concentration-response curves. For each experiment, controls (containing no drug) and a blank incubation (containing no cells or drugs) were run in parallel. The blank value was subtracted from all control and sample values. For each sample, the mean value for cell growth (in absorbance units) was expressed as a percentage of the mean value for cell growth of the control. When appropriate, IC50-values (concentration of the drug, needed to reduce cell growth to 50% of the control) were computed using probit analysis for graded data (Finney, D. J., Probit Analyses, 2nd Ed. Chapter 10, Graded Responses, Cambridge University Press, Cambridge 1962). Herein the effects of test compounds are expressed as pIC50 (the negative log value of the IC50-value) (see table F-2).
# In some of the experiments the proliferation assay was adapted for and used in 384-well culture plates (see table F-2).
# [1] = 96-well plates, read-out: cell proliferation pIC50 96 well (converted)
IC50 (U87MG cells; [1]),"IC50 (U87MG cells; 384-well culture plates, read-out: cell proliferation pIC50 384 well (converted))",SMILES,A2780 p53-elisa LAD (p53 in A2780 cells)
158 nM,–,OCc1cc(N2CCc3cc(NCCc4c[nH]c5ccccc45)ccc32)ccn1 [Compound 4],0.3 µM
295 nM,–,OC1CCc2c(N3CCc4cc(NCCc5c[nH]c6ccccc56)ccc43)ccnc21 (stereo not drawn) [Compound 5],0.3 µM
–,295 nM,CC1(C)CN(c2ccncc2)c2ccc(NCCc3c[nH]c4ccccc34)cc21 [Compound 6],3 µM

# The next lines start with the molecule.
SMILES,IC50 (U87MG cells; [1]),"IC50 (U87MG cells; 384-well culture plates, read-out: cell proliferation pIC50 384 well (converted))",A2780 p53-elisa LAD (p53 in A2780 cells)
c1ccc2c(CCNc3ccc4c(c3)CCN4c3ccncc3)c[nH]c2c1 [Compound 1],10 nM,–,0.1 µM
c1ccc2c(N3CCc4cc(NCCc5c[nH]c6ccccc56)ccc43)ccnc2c1 [Compound 2],1700 nM,–,1 µM
COC(=O)c1cc(N2CCc3cc(NCCc4c[nH]c5ccccc45)ccc32)ccn1 [Compound 3],4170 nM,–,1 µM
